Consider nine molecules from publication PMC7767166, “Imidazole and Imidazolium Antibacterial Drugs Derived from Amino Acids” (Pharmaceuticals, 2020).

Several values for one entry are separate records, joined by “and”; a condition that tells them apart may be missing. Identical values can stand only once. Like-named read-outs stand apart in the source and are kept apart here.

One data set concerns Escherichia coli DH5α. In words: Bacterial growth inhibition assay (microdilution, OD 560 nm), MIC. The following applies: read-out: E. coli MIC. The class given is cell-based. How it is done:
(§1) The in vitro antibacterial activities of the synthesized compounds were examined against E. coli and B. subtilis. Bacteria were incubated in culture media with varying concentrations of the examined compound and the antibacterial properties were determined by observation of the optical density at 560 nm (bacteriostatic activity) and by the Resazurin cell viability assay (bactericidal activity). The corresponding minimal bactericidal concentration (MBC) and minimum inhibitory concentration (MIC) values that were obtained are summarized in Table 1 (please refer to Table S1 for MIC and MBC values in μM). Two bacterial strains were used in the antibacterial assays: Escherichia coli DH5α as a Gram-negative model and Bacillus subtilis 1904-E as a Gram-positive model. Both bacterial strains were donated to our laboratory and can be provided on request by contacting the corresponding authors. Both bacterial strains were incubated at 37 °C and the pre-inoculum incubation time was of 24 h. Liquid Luria-Bertani (LB) medium was used for E. coli DH5α and nutrient broth (NB) for B. subtilis. The bacteria cell bank suspensions were thawed and inoculated in the appropriate liquid broth for 24 h at 37 °C with mild agitation. A dilution from these culture solutions was used for the following tests, corresponding to an inoculum of 1 × 10^7 CFU/mL. Stock solutions of all the tested compounds were prepared in DMSO at a concentration of 100 mg/mL, aliquoted, and stored at −20 °C. (A) Bacterial growth inhibition assay: Conditions here described are for testing 6 different concentrations of the compounds, with triplicates of each condition. Therefore, 4 compounds were tested per plate. An adapted version of the microdilution method was used. Firstly, the imidazole derivatives were dissolved in the corresponding broth at 2× the highest tested concentration. Then, 100 μL of the 2× solutions were added to the first (A) and second (B) row wells of a 96-well plate. In addition, 100 μL of liquid medium had been previously added to rows B to F. Subsequent dilutions at 1:2 are prepared in rows B to F, by withdrawal of 100 μL from the previous row (more concentrated) to the next row (half diluted), mixing well. Then, 100 μL were discarded from the last row (F). By now, there are 100 μL in each well, and 100 μL of bacterial suspension at 10^7 CFU/mL were added to each well. Then, the 96-well plates were incubated for 24 h at 37 °C under mild agitation. Bacterial growth was controlled both by visual observation of the turbidity in each well and by measuring the optical density (OD) at 560 nm at time 0 h and 24 h. Results are recorded as the lowest concentration of antimicrobial agent that inhibits visible growth of the bacteria, and were compared with the OD variation of a control culture containing E. coli or B. subtilis (+ control) and of solution of the tested compounds without bacteria (- control).

The next data set concerns Bacillus subtilis 1904-E. The description is as above. Format: cell-based. The following applies: read-out: B. subtilis MIC. How it is done:
as §1

The test system of another data set is HEK-293 cells. In words: Cell proliferation assay for cytotoxicity (MTT). The following applies: 2 days of incubation. The class given is cell-based, human. How it is done:
Human embryonic kidney cells, HEK-293, were chosen as a cell model to evaluate the cytotoxicity of the compounds. The HEK-293 cells were incubated in the cell culture medium with varying concentrations of the examined compound and the impact of treatment was measured using the MTT cell viability assay.
Cell culture media for cytotoxicity studies were purchased from Gibco (Grand Island, NY, USA). Fetal bovine serum (FBS) was obtained from HyClone (UT, USA). Supplements and other chemicals not listed in this section were obtained from Sigma Chemical Co. (St. Louis, MO, USA). Plastics for cell culture were supplied by Thermo Scientific BioLite (Madrid, Spain). All tested compounds were dissolved in DMSO at a concentration of 10 mM and stored at −20 °C until use. HEK-293 cell lines were maintained in Dulbecco’s modified Eagle’s medium (DMEM) containing glucose (1 g/L), glutamine (2 mM), penicillin (50 μg/mL), streptomycin (50 μg/mL), and amphotericin B (1.25 μg/mL) supplemented with 10% FBS.
In 96-well plates, 3 × 10^3 HEK-293 cells per well were seeded and incubated with serial dilutions of the tested compounds (from 200 to 0.2 μM) to a total volume of 100 μL of their growth media. The 3-(4,5-dimethylthiazol-2-yl)-2,5-diphenyltetrazolium bromide (MTT; Sigma Chemical Co.) dye reduction assay in 96-well microplates was used, as previously described. After 2 days of incubation (37 °C, 5% CO2 in a humid atmosphere), 10 μL of MTT (5 mg/mL in phosphate-buffered saline, PBS) was added to each well, and the plate was incubated for a further 3 h (37 °C). The supernatant was discarded and replaced by 100 µL of DMSO to dissolve formazan crystals. The absorbance was then read at 540 nm by Multiskan^TM FC microplate reader. For all concentrations of compound, cell viability was expressed as the percentage of the ratio between the mean absorbance of treated cells and the mean absorbance of untreated cells. Three independent experiments were performed, and the IC50 values (i.e., concentration half inhibiting cell proliferation) were graphically determined using GraphPad Prism 4 software.

In the next data set the test system is E. coli and B. subtilis. In words: MBC to MIC ratio (bactericidal vs bacteriostatic). Format: cell-based. The following applies: from exact MBC and MIC values of Table 1. The source says:
The Gram-positive cell wall is composed of a thick, multilayered peptidoglycan sheath outside of the cytoplasmic membrane, while the Gram-negative cell wall is composed of an outer membrane linked by lipoproteins to thin, mainly single-layered peptidoglycan. The peptidoglycan is located within the periplasmic space that is created between the outer and inner membranes. […] Compounds with MBC/MIC >4 are considered to be bacteriostatic. In all the cases in which we could obtain exact MBC and MIC values (Table 1, entries 2, 3, 8 and 9), their ratio was equal to or minor than four.

The nature of data set [1]: Solubility in media of the fluorescence studies. Format: physicochemical. The following applies: water and 1/1 water/bacterial cell culture medium. How it is done:
Fluorescence studies were carried out using MilliQ® water and 1/1 MilliQ® water/bacterial cell culture medium, because with the pure cell culture medium, a strong broad fluorescence emission band was observed precluding an accurate analysis. […] The corresponding CACs obtained in water and in the 1/1 mixture of water/bacterial cell culture medium by fluorescence are shown in Table 2.

The mark [2] stands for this setting: 24 h, 37 °C, LB medium, minimum of three experiments.
The mark [3] stands for this setting: mode of at least three experiments.
The mark [4] stands for this setting: 24 h, 37 °C, nutrient broth, minimum of three experiments.

Usually MIC stands for the lowest concentration that inhibits growth of the organism. What is called IC50 is the concentration that gives 50% inhibition. The low end stands for greater potency, the high end for weaker potency. As to `CCCCCCCCCCCCNC(=O)[C@H](C(C)C)n1ccnc1` [Compound 1a], the minimum inhibitory concentration (MIC) in the data set on Escherichia coli DH5α (setting [2]) is greater than 2000 µg/mL; in the data set with Escherichia coli DH5α (setting [3]), greater than 6000 µM; with Bacillus subtilis 1904-E (setting [4]), 16 µg/mL; in the data set with Bacillus subtilis 1904-E (setting [3]) it was 48 µM. In addition, the IC50 in the data set on HEK-293 cells (Homo sapiens, HEK293, 48 h) was 9.6 µM and 3.2 µg/mL.

A word on the melting point: it is the temperature, or range, at which the solid turns liquid. The molecule `CCCCCCCCCCCCNC(=O)[C@H](Cc1ccccc1)n1cc[n+](Cc2ccccc2)c1` [Compound 3b] gave a melting point of 16 °C. Moreover, in the data set with Escherichia coli DH5α (setting [2]), the MIC came out at 32 µg/mL. In addition, the MIC in the data set on Escherichia coli DH5α (setting [3]) was determined as 57 µM. Also, the minimum inhibitory concentration (MIC) in the data set on Bacillus subtilis 1904-E (setting [4]) turned out to be 4 µg/mL. For the same molecule, the minimum inhibitory concentration (MIC) with Bacillus subtilis 1904-E (setting [3]) came to 7 µM. For the same molecule, the half-maximal inhibitory concentration (IC50) in the data set on HEK-293 cells (Homo sapiens, HEK293, 48 h) is 109 µM and 61 µg/mL. In addition, the “bactericidal or bacteriostatic (MBC to MIC ratio equal to or less than four = bactericidal)” value with E. coli and B. subtilis was “true bactericidal activity”.

For `CCCCNC(=O)[C@H](C(C)C)n1ccnc1` [Compound 2a], the MIC was greater than 2000 µg/mL in the data set on Escherichia coli DH5α (setting [2]), greater than 9000 µM with Escherichia coli DH5α (setting [3]), greater than 2000 µg/mL in the data set with Bacillus subtilis 1904-E (setting [4]) and greater than 9000 µM in the data set with Bacillus subtilis 1904-E (setting [3]). The same molecule displayed an IC50 in the data set on HEK-293 cells (Homo sapiens, HEK293, 48 h) greater than 45 µg/mL.

Consider `CCCCNC(=O)[C@H](C(C)C)n1cc[n+](Cc2ccccc2)c1` [Compound 2b], for which the melting point was determined as 33 °C. Moreover, in the data set with Escherichia coli DH5α (setting [2]), the minimum inhibitory concentration (MIC) is greater than 2000 µg/mL. The MIC with Escherichia coli DH5α (setting [3]) is greater than 5000 µM. Besides, in the data set with Bacillus subtilis 1904-E (setting [4]), the MIC was greater than 1000 µg/mL. Moreover, the MIC in the data set with Bacillus subtilis 1904-E (24 h, mode of at least three experiments) was 2590 µM. The IC50 with HEK-293 cells (Homo sapiens, HEK293, 48 h) is greater than 79 µg/mL.

In the case of `CCCCCCCCCCCCNC(=O)[C@H](C(C)C)n1cc[n+](Cc2ccccc2)c1` [Compound 1b], the minimal inhibitory concentration (MIC) in the data set with Escherichia coli DH5α (setting [2]) was found to be 128 µg/mL; in the data set on Escherichia coli DH5α (setting [3]) it was 288 µM; with Bacillus subtilis 1904-E (setting [4]), 4 µg/mL; in the data set with Bacillus subtilis 1904-E (setting [3]) it was 9 µM. Also, the concentration for half-maximal inhibition (IC50) with HEK-293 cells (Homo sapiens, HEK293, 48 h) was 1.8 µM and 0.8 µg/mL. Besides, the “bactericidal or bacteriostatic (MBC to MIC ratio equal to or less than four = bactericidal)” value in the data set on E. coli and B. subtilis is on record as “true bactericidal activity”.

As to `CCCCCCCCCCCCNC(=O)[C@H](C(C)C)n1cc[n+](Cc2cccc(C[n+]3ccn([C@@H](C(=O)NCCCCCCCCCCCC)C(C)C)c3)c2)c1` [Compound 1c], the minimum inhibitory concentration (MIC) was 256 µg/mL in the data set on Escherichia coli DH5α (setting [2]), 269 µM in the data set on Escherichia coli DH5α (setting [3]), 16 µg/mL in the data set on Bacillus subtilis 1904-E (setting [4]) and 19 µM in the data set with Bacillus subtilis 1904-E (setting [3]). The half-inhibitory concentration (IC50) in the data set with HEK-293 cells (Homo sapiens, HEK293, 48 h) is 19 µM and 18 µg/mL. The “bactericidal or bacteriostatic (MBC to MIC ratio equal to or less than four = bactericidal)” value in the data set on E. coli and B. subtilis is reported as “true bactericidal activity”.

For the molecule `CCCCCCCCCCCCNC(=O)[C@H](Cc1ccccc1)n1ccnc1` [Compound 3a], the melting point came to 56.1 °C. In addition, the MIC with Escherichia coli DH5α (setting [2]) worked out at 1000 µg/mL. Also, in the data set with Escherichia coli DH5α (setting [3]), the minimal inhibitory concentration (MIC) came to 2660 µM. Besides, the minimum inhibitory concentration (MIC) with Bacillus subtilis 1904-E (setting [4]) worked out at 16 µg/mL. In the data set with Bacillus subtilis 1904-E (setting [3]), the minimal inhibitory concentration (MIC) amounted to 42 µM. Also, the IC50 with HEK-293 cells is less than 36 µM. Besides, in the data set on HEK-293 cells (Homo sapiens, HEK293, 48 h), the concentration for half-maximal inhibition (IC50) was 19 µM and 7.3 µg/mL.

In the case of `CCCCNC(=O)[C@H](C(C)C)n1cc[n+](Cc2cccc(C[n+]3ccn([C@@H](C(=O)NCCCC)C(C)C)c3)c2)c1` [Compound 2c], the melting point was 85 °C. In addition, the minimum inhibitory concentration (MIC) in the data set with Escherichia coli DH5α (setting [2]) came to 1000 µg/mL. Further, in the data set on Escherichia coli DH5α (setting [3]), the MIC amounted to 1440 µM. Further, the MIC in the data set with Bacillus subtilis 1904-E (setting [4]) was 128 µg/mL. In addition, the MIC in the data set on Bacillus subtilis 1904-E (setting [3]) was 180 µM. The same molecule gave a concentration for half-maximal inhibition (IC50) in the data set on HEK-293 cells (Homo sapiens, HEK293, 48 h) greater than 142 µg/mL.

As for `CCCCCCCCCCCCNC(=O)[C@@H](Cc1ccccc1)n1cc[n+](Cc2cccc(C[n+]3ccn([C@@H](Cc4ccccc4)C(=O)NCCCCCCCCCCCC)c3)c2)c1` [Compound 3c], the melting point was 60 °C. In the data set with Escherichia coli DH5α (setting [2]), the MIC was 2000 µg/mL. In addition, in the data set on Escherichia coli DH5α (setting [3]), the MIC worked out at 1990 µM. Further, the MIC in the data set with Bacillus subtilis 1904-E (setting [4]) was found to be 64 µg/mL. For the same molecule, the minimal inhibitory concentration (MIC) in the data set with Bacillus subtilis 1904-E (setting [3]) is 62 µM. In addition, the solubility result in data set [1] was “solubility problems”. Besides, the half-maximal inhibitory concentration (IC50) in the data set with HEK-293 cells was less than 36 µM. Moreover, the IC50 in the data set with HEK-293 cells (Homo sapiens, HEK293, 48 h) is 36 µM and 37 µg/mL. The “bactericidal or bacteriostatic (MBC to MIC ratio equal to or less than four = bactericidal)” value in the data set on E. coli and B. subtilis is given as “true bactericidal activity”.
